The subject of one series is HS-5 cells. As to conditions: 24 h; CL, CLsu and conjugates 20 μM; Cipro, TMP, TEL 0.5 μM.
The nature of series [1]: Serum stability in human serum. The settings on record: human serum (from human male AB plasma), 200 μM, 37 °C, LC-MS.
The subject of series [2] is ydgR, fepA, ompF deletion mutants of E. coli. Type of series: cell-based. As to conditions: compared with wild-type E. coli.
The subject of series [3] is esterase (bioH, yjfP, frsA, ybfF, yfbB, ypfH, yeiG or yqiA) deletion mutants of E. coli. Description: Antibacterial activity against esterase deletion mutants of E. coli. Type of series: cell-based. The settings on record: eight single esterase gene deletion mutants.
In a further series the test system is E. coli. Kind of series: Antibacterial activity before and after treatment with porcine liver esterase. The class given is cell-based. As to conditions: [PLE] = 1 U/mL.
Series [4] in a line: Static light scattering before and after addition of PLE. The class given is physicochemical. As to conditions: compound 200 μM, [PLE] = 1 U/mL, 24 h.
The conditions of series [5]: E. coli (K-12) lysate 0.1 U/mL, compound 200 μM, lysate activities normalized.
In a further series the test system is E. coli (K-12). Description: Antibacterial activity. Type of series: cell-based. As to conditions: minimum inhibitory concentration, wild type E. coli (K-12).
The next series can be described thus: Water solubility. Type of series: physicochemical. The settings on record: in words only.

We go through 10 molecules from publication PMC6902879 (Journal of medicinal chemistry, 2019).

Turning to `O=C(O)CCC(=O)OC[C@@H](NC(=O)C(Cl)Cl)[C@H](O)c1ccc([N+](=O)[O-])cc1` [CLsu, chloramphenicol succinate, reference compound], the “cytotoxicity against HS-5 cells” value in the series with HS-5 cells was “lower cytotoxicity than CL”. Besides, the “conversion to CL after 24 h” value in series [1] (24 h) was “less than 15%”.

`O=C(CCC(=O)OC[C@@H](NC(=O)C(Cl)Cl)[C@H](O)c1ccc([N+](=O)[O-])cc1)NCC(=O)N[C@H](CO)C(=O)O` [Compound 1c]: the “effect of deletion of ydgR, fepA or ompF on bacterial viability under treatment” value (“effect of deletion of ydgR, fepA or ompF” below) in [2] is reported as “hardly rescues the bacteria”. The “reduction of antibacterial activity by deletion of a cytoplasmic esterase” value (from here on “reduction of antibacterial activity”) in series [3] is “about 20%”. Besides, the “change of inhibitory efficacy on addition of exogenous PLE” value (“change of inhibitory efficacy” for short) in the series on E. coli is given as “hardly changes the inhibitory efficacy”. Besides, the “intensity of static light scattering signal after addition of PLE” value (from here on “intensity”) in series [4] is given as “increase drastically”. Besides, in series [5], the “apparent first-order rate constant of hydrolysis” value was 3.763 h⁻¹. Moreover, the “time to complete hydrolysis” value in series [1] is reported as ≤ 2 h.

Consider `O=C(O)CNC(=O)[C@@H](CO)NC(=O)CCC(=O)OC[C@@H](NC(=O)C(Cl)Cl)[C@H](O)c1ccc([N+](=O)[O-])cc1` [Compound 1d], for which the “effect of deletion of ydgR, fepA or ompF” value in series [2] was “hardly rescues the bacteria”. The “reduction of antibacterial activity” value in series [3] is ~10%. In addition, the “change of inhibitory efficacy” value in the series with E. coli is recorded as “hardly changes the inhibitory efficacy”. The “intensity” value in series [4] was “increase drastically”. Further, the “apparent first-order rate constant of hydrolysis” value in series [5] was determined as 1.267 h⁻¹.

`NCCCC[C@@H](NC(=O)[C@@H](CCCCN)NC(=O)CCC(=O)OC[C@@H](NC(=O)C(Cl)Cl)[C@H](O)c1ccc([N+](=O)[O-])cc1)C(=O)O` [Compound 2b]: the “effect of deletion of ydgR, fepA or ompF” value in series [2] is recorded as “hardly rescues the bacteria”. The “reduction of antibacterial activity” value in series [3] is “about 20%”. The “change of inhibitory efficacy” value in the series on E. coli is reported as “hardly changes the inhibitory efficacy”. Further, the “intensity” value in series [4] is “increase drastically”. Also, the “apparent first-order rate constant of hydrolysis” value in series [5] worked out at 0.317 h⁻¹.

As for `NCCCC[C@H](NC(=O)[C@H](CCCCN)NC(=O)CCC(=O)OC[C@@H](NC(=O)C(Cl)Cl)[C@H](O)c1ccc([N+](=O)[O-])cc1)C(=O)O` [Compound 2c], the “effect of deletion of ydgR, fepA or ompF” value in series [2] is recorded as “hardly rescues the bacteria”. For the same molecule, in series [3], the “reduction of antibacterial activity” value is reported as “about 20%”. Further, the “change of inhibitory efficacy” value with E. coli is recorded as “hardly changes the inhibitory efficacy”. In addition, in series [4], the “intensity” value is recorded as “increase drastically”. Moreover, the “apparent first-order rate constant of hydrolysis” value in [5] was 0.310 h⁻¹.

A word on the MIC: it is the lowest concentration that inhibits growth of the organism. For the molecule `O=C(O)CC[C@@H](NC(=O)[C@@H](CCC(=O)O)NC(=O)CCC(=O)OC[C@@H](NC(=O)C(Cl)Cl)[C@H](O)c1ccc([N+](=O)[O-])cc1)C(=O)O` [Compound 2g], in the series with E. coli (K-12), the MIC is > 200 µM.

For the molecule `O=C(O)C[C@@H](NC(=O)[C@@H](CC(=O)O)NC(=O)CCC(=O)OC[C@@H](NC(=O)C(Cl)Cl)[C@H](O)c1ccc([N+](=O)[O-])cc1)C(=O)O` [Compound 2h], the MIC in the series with E. coli (K-12) is > 200 µM.

Consider `C[C@@H](NC(=O)CCC(=O)OC[C@@H](NC(=O)C(Cl)Cl)[C@H](O)c1ccc([N+](=O)[O-])cc1)C(=O)O` [Compound 4a], for which the MIC with E. coli (K-12) was > 200 µM.

Consider `COC(=O)CCC(=O)OC[C@@H](NC(=O)C(Cl)Cl)[C@H](O)c1ccc([N+](=O)[O-])cc1` [Compound 4b], for which, in the series with E. coli (K-12), the MIC is >200 µM. For the same molecule, the water solubility entry in the series “Water solubility” was “water-insoluble”.

On to `CC[C@H]1OC(=O)[C@H](C)C(=O)[C@H](C)[C@@H](O[C@@H]2O[C@H](C)C[C@H](N(C)C)[C@H]2O)[C@](C)(OC)C[C@@H](C)C(=O)[C@H](C)[C@H]2N(CCCCn3cnc(-c4cccnc4)c3)C(=O)O[C@]12C` [telithromycin], for which, in the series on HS-5 cells, the “cytotoxicity against HS-5 cells” value is “relatively low cytotoxicity”.
